# Earlier results as cited in patent US20100183739A1, “Treatment and prevention of systemic bacterial infections in plants using antimicrobial metal compositions” (priority 2009, published 2010).
# Test system: bacteria
# Details: Appl Environ Microbiol. 2008; 74(7): 2171-2178
structure (smiles),measurement,value
[Ag+] [silver ion],silver ion concentration for inhibition of bacterial growth,below 5 ppm
